Results published in patent US10682371B2, “Small molecule conjugates specifically activated in tumor microenvironment for targeting and use thereof” (priority 2014, dated 2020).
Read-outs that look alike come from different tables or passages of the source.

How the values were obtained:
D121 lung tumor cells = type: in vivo, C57 mice; details: for Effect together with PDL1-antibody in promoting immunization and treatment, in words: combination with PDL1-antibody; for Treatment effects on C57 mice, in words: compared to the control group and the other treatment groups
How it was run: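 Endpoint is tumor inhibition rate from tumor size (mm^3) after weekly drug treatment for 4 weeks, begun once s.c. tumors from 10^6 live D121 cells reached 0.3-0.4 cm. Before challenge, C57 mice received three i.p. doses of 5×10^5 irradiated D121 cells, two weeks apart, or saline.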

[1] = tested on: Human breast cancer MDA-MB435 tumor tissue homogenate; type: biochemical; details: for activation efficiency (%): 1 mg/ml; for Activation ratio (%) in homogenates from different tumor tissues: 100 μg acidized homogenate pH6.0, 1 mg/ml, 37°
How it was run: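 Compounds at 1 mg/ml incubated at 37° C. with 100 μg acidified (pH6.0) MDA-MB435 human breast tumor tissue homogenate, as a source of proteases for compound activation.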

[2] = tested on: Human liver cancer Hepg2 tumor tissue homogenate; type: biochemical; details: for Activation ratio (%) in homogenates from different tumor tissues: 100 μg acidized homogenate pH6.0, 1 mg/ml, 37°
How it was run: (§1)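 Activation efficiency by tissue proteases is the read-out. Each sample compound, at 1 mg/ml, was incubated with 100 μg of acid-treated homogenate at pH6.0 and 37° C.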

[3] = tested on: Human chronic leukemia K562 tumor tissue homogenate; type: biochemical; details: for Activation ratio (%) in homogenates from different tumor tissues: 100 μg acidized homogenate pH6.0, 1 mg/ml, 37°
How it was run: as §1

[4] = tested on: Human prostate cancer PC-3 tumor tissue homogenate; type: biochemical; details: for Activation ratio (%) in homogenates from different tumor tissues: 100 μg acidized homogenate pH6.0, 1 mg/ml, 37°
How it was run: as §1

[5] = tested on: Human non-small cell lung cancer A549 tumor tissue homogenate; type: biochemical; details: for Activation ratio (%) in homogenates from different tumor tissues: 100 μg acidized homogenate pH6.0, 1 mg/ml, 37°
How it was run: as §1

[6] = tested on: Human colon cancer HT-29 tumor tissue homogenate; type: biochemical; details: for Activation ratio (%) in homogenates from different tumor tissues: 100 μg acidized homogenate pH6.0, 1 mg/ml, 37°
How it was run: as §1

[7] = tested on: Human ovarian cancer SK-OV-3 tumor tissue homogenate; type: biochemical; details: for Activation ratio (%) in homogenates from different tumor tissues: 100 μg acidized homogenate pH6.0, 1 mg/ml, 37°
How it was run: as §1

[8] = tested on: Human pancreatic cancer Panc-1 tumor tissue homogenate; type: biochemical; details: for Activation ratio (%) in homogenates from different tumor tissues: 100 μg acidized homogenate pH6.0, 1 mg/ml, 37°
How it was run: as §1

[9] = tested on: Human renal cancer OS-RC-2 tumor tissue homogenate; type: biochemical; details: for Activation ratio (%) in homogenates from different tumor tissues: 100 μg acidized homogenate pH6.0, 1 mg/ml, 37°
How it was run: as §1

tumor CD8+ T cells = type: in vivo, C57 mice; details: for CD8: CD45 (%): CD8 positive cells in CD45 positive cells of tumor
How it was run: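 Tumour tissue homogenised and single cells filtered, washed, then stained 1 h at ambient temperature with CD45-PE and CD8-FITC antibodies. After washes in PBS with 1% FBS, flow cytometry gave the fraction of CD8⁺ cells among CD45⁺ leucocytes.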

[10] = Table 39, immunized C57 mice, D121, drugs 13.2 μmol/kg, PDL1-antibody 5 μg/kg, weekly for 4 weeks, Day 18
[11] = D121 immunized C57 mice, drugs weekly for 4 weeks, Day 18 (Example 23)
[12] = human breast cancer (MDA-MB435) tumor tissue homogenates pH6.0, 100 μg, control compounds vs S1′-S4′
[13] = Human non-small cell lung cancer A549
[14] = D121 immunized C57 mice (Example 23)
[15] = D121 immunized C57 mice, 13.2 μmol/kg weekly, PDL1 antibody 5 μg/kg where combined, Day 18

COCCOCC(=O)NCCCC[C@H](NC(=O)COCCOC)C(=O)N[C@H](C)C(=O)N[C@H](C)C(=O)N[C@H](CC(N)=O)C(=O)Nc1ccc(COC(=O)OC(C(=O)OC2C[C@@]3(O)[C@@H](OC(=O)c4ccccc4)[C@H]4[C@](C)(C(=O)[C@H](O)C(=C2C)C3(C)C)[C@@H](O)CC2OC[C@]24OC(C)=O)[C@@H](NC(=O)OC(C)(C)C)c2ccccc2)cc1 (some centres unmarked) [Compound B1]
Size of tumor (mm^3) Day 18 (D121 lung tumor cells; [10]): 271.36 ± 157.56 mm^3 | inhibitory rate on tumor % Day 18 (D121 lung tumor cells; [10]): 83.25% | Effect together with PDL1-antibody in promoting immunization and treatment, in words (D121 lung tumor cells): excellent synergistic effect | Treatment effects on C57 mice, in words (D121 lung tumor cells): greatly improved | activation efficiency (%) ([1]; Table 34, Human breast cancer MDA-MB435, acidized homogenate, Docetaxel release by HPLC): 93.5% | activation efficiency (%) ([2]; Table 34, Human liver cancer Hepg2, 1 mg/ml, acidized homogenate, Docetaxel release by HPLC): 76.3% | activation efficiency (%) ([3]; Table 34, Human chronic leukemia K562, 1 mg/ml, acidized homogenate, Docetaxel release by HPLC): 69.0% | activation efficiency (%) ([4]; Table 34, Human prostate cancer PC-3, 1 mg/ml, acidized homogenate, Docetaxel release by HPLC): 76.1% | activation efficiency (%) ([5]; Table 34, Human non-small cell lung cancer A549, 1 mg/ml, acidized homogenate, Docetaxel release by HPLC): 91.2% | activation efficiency (%) ([6]; Table 34, Human colon cancer HT-29, 1 mg/ml, acidized homogenate, Docetaxel release by HPLC): 83.9% | activation efficiency (%) ([7]; Table 34, Human ovarian cancer SK-OV-3, 1 mg/ml, acidized homogenate, Docetaxel release by HPLC): 93.1% | activation efficiency (%) ([8]; Table 34, Human pancreatic cancer Panc-1, 1 mg/ml, acidized homogenate, Docetaxel release by HPLC): 86.9% | activation efficiency (%) ([9]; Table 34, Human renal cancer OS-RC-2, 1 mg/ml, acidized homogenate, Docetaxel release by HPLC): 90.9% | CD8: CD45 (%) (tumor CD8+ T cells; Table 39, flow cytometry, drugs 13.2 μmol/kg, PDL1-antibody 5 μg/kg): 18.9%

COCCOCC(=O)N[C@H](C)C(=O)N[C@H](C)C(=O)N[C@H](CC(N)=O)C(=O)Nc1ccc(COC(=O)OC(C(=O)OC2C[C@@]3(O)C(OC(=O)c4ccccc4)[C@@H]4C5(OC(C)=O)COC5C[C@H](O)[C@@]4(C)C(=O)[C@H](OC(C)=O)C(=C2C)C3(C)C)[C@@H](NC(=O)c2ccccc2)c2ccccc2)cc1 (stereo in doubt) [S1′, 2-(2-methoxyethoxy) acetylamino-L-Ala-L-Ala-L-Asn-p-amino-benzyl-paclitaxel]
Size of tumor (mm^3) Day 18 (D121 lung tumor cells; [11]): 237.60 ± 156.42 mm^3 | inhibitory rate on tumor % Day 18 (D121 lung tumor cells; [11]): 84.9% | Effect together with PDL1-antibody in promoting immunization and treatment, in words (D121 lung tumor cells): excellent synergistic effect | Treatment effects on C57 mice, in words (D121 lung tumor cells): greatly improved | Activation ratio (%) in homogenates from different tumor tissues ([1]; Human breast cancer MDA-MB435): 92.3% | activation efficiency (%) [1, 12]: 94.3% | Activation ratio (%) in homogenates from different tumor tissues ([2]; Human liver cancer Hepg2): 95.3% | Activation ratio (%) in homogenates from different tumor tissues ([3]; Human chronic leukemia K562): 64.7% | Activation ratio (%) in homogenates from different tumor tissues ([4]; Human prostate cancer PC-3): 97.3% | Activation ratio (%) in homogenates from different tumor tissues [5, 13]: 86.4% | Activation ratio (%) in homogenates from different tumor tissues ([6]; Human colon cancer HT-29): 79.4% | Activation ratio (%) in homogenates from different tumor tissues ([7]; Human ovarian cancer SK-OV-3): 88.4% | Activation ratio (%) in homogenates from different tumor tissues ([8]; Human pancreatic cancer Panc-1): 94.8% | Activation ratio (%) in homogenates from different tumor tissues ([9]; Human renal cancer OS-RC-2): 86.4% | CD8: CD45 (%) (tumor CD8+ T cells; [14]): 19.6%

COCCOCCOCCOCCOCCOCCOCCOCCOCCOCCOCCOCC(=O)N[C@H](C)C(=O)N[C@H](C)C(=O)N[C@H](CC(N)=O)C(=O)Nc1ccc(COC(=O)OC(C(=O)OC2C[C@@]3(O)[C@@H](OC(=O)c4ccccc4)[C@H]4[C@](C)(C(=O)[C@H](OC(C)=O)C(=C2C)C3(C)C)[C@@H](O)CC2OC[C@]24OC(C)=O)[C@@H](NC(=O)c2ccccc2)c2ccccc2)cc1 (some centres unmarked) [S3′]
Size of tumor (mm^3) Day 18 (D121 lung tumor cells; [11]): 357.63 ± 194.54 mm^3 | inhibitory rate on tumor % Day 18 (D121 lung tumor cells; [11]): 77.3% | Treatment effects on C57 mice, in words (D121 lung tumor cells): greatly improved | Activation ratio (%) in homogenates from different tumor tissues ([1]; Human breast cancer MDA-MB435): 90.4% | activation efficiency (%) [1, 12]: 91.5% | Activation ratio (%) in homogenates from different tumor tissues ([2]; Human liver cancer Hepg2): 83.5% | Activation ratio (%) in homogenates from different tumor tissues ([3]; Human chronic leukemia K562): 70.2% | Activation ratio (%) in homogenates from different tumor tissues ([4]; Human prostate cancer PC-3): 96.3% | Activation ratio (%) in homogenates from different tumor tissues [5, 13]: 81.4% | Activation ratio (%) in homogenates from different tumor tissues ([6]; Human colon cancer HT-29): 91.4% | Activation ratio (%) in homogenates from different tumor tissues ([7]; Human ovarian cancer SK-OV-3): 79.3% | Activation ratio (%) in homogenates from different tumor tissues ([8]; Human pancreatic cancer Panc-1): 91.5% | Activation ratio (%) in homogenates from different tumor tissues ([9]; Human renal cancer OS-RC-2): 86.4% | CD8: CD45 (%) (tumor CD8+ T cells; [14]): 16.7%

4-N—(N—(N—(N-(6-maleimido caproyl)-L-alanyl)-L-alanyl)-L-asparaginyl)-amino benzyl alcohol-MMAE-carbamate [Compound S6]
Inhibitory rate on tumor Day 18 (D121 lung tumor cells; [15]): 29.47 | Size of tumor (mm^3) Day 18 (D121 lung tumor cells; [15]): 957.46 ± 257.87 mm^3 | Treatment effects on C57 mice, in words (D121 lung tumor cells): improved treatment effect as compared to the daunorubicin group | Activation Efficiencies (%) ([1]; Human breast cancer MDA-MB435 tumor tissue homogenate (30 μg/ml), 1 mg/ml compound): 25.6% | Activation Efficiencies (%) ([2]; Human liver cancer Hepg2 tumor tissue homogenate (30 μg/ml), 1 mg/ml compound): 26.7% | Activation Efficiencies (%) ([3]; Human chronic leukemia K562 tumor tissue homogenate (30 μg/ml), 1 mg/ml compound): 28.4% | Activation Efficiencies (%) ([4]; Human prostate cancer PC-3 tumor tissue homogenate (30 μg/ml), 1 mg/ml compound): 13.2% | Activation Efficiencies (%) ([5]; Human non-small cell lung cancer A549 tumor tissue homogenate (30 μg/ml), 1 mg/ml compound): 27.4% | Activation Efficiencies (%) ([6]; Human colon cancer HT-29 tumor tissue homogenate (30 μg/ml), 1 mg/ml compound): 22.4% | Activation Efficiencies (%) ([7]; Human ovarian cancer SK-OV-3 tumor tissue homogenate (30 μg/ml), 1 mg/ml compound): 23.5% | Activation Efficiencies (%) ([8]; Human pancreatic cancer Panc-1 tumor tissue homogenate (30 μg/ml), 1 mg/ml compound): 17.3% | Activation Efficiencies (%) ([9]; Human renal cancer OS-RC-2 tumor tissue homogenate (30 μg/ml), 1 mg/ml compound): 20.4% | CD8: D45 (%) (tumor CD8+ T cells; D121 immunized C57 mice, 13.2 μmol/kg, ratio of CD8 positive cells in CD45 positive cells of tumor): 13.0%
